Laboratory results reported in PMC2628638, “Catalytic inhibition of topoisomerase II by a novel rationally designed ATP-competitive purine analogue” (BMC Chemical Biology, 2009).

Key:
HeLa T-Rex cells = assay: Gamma-H2AX In-Cell Western assay (doxorubicin-induced DNA damage); assay type: cell-based; settings: Homo sapiens, HeLa; 30 minutes pretreatment, then 1 μM doxorubicin for 2 hours; read-out: IC50, suppression of doxorubicin-induced γH2AX signal
Procedure: In-Cell Western analysis was carried out as follows. HeLa T-Rex cells were seeded at the cell density of 15 × 10^3 cells per well in black 96-well plates (Greiner Bio-one Vacuette, St Gallen, Switzerland). The day post-seeding, cells were pretreated with increasing concentrations of either ICRF-193, QAP 1 or vehicle (DMSO) for 30 minutes followed by a 2 hours treatment with 1 μM of doxorubicin, or were only treated with the same concentrations of ICRF-193, QAP 1 or vehicle (DMSO) for 2 hours. Treatments were done in triplicate. […] Finally, cells were washed 4 times with 50 μl per well of PBS containing 0.1% Tween-20 for 3 minutes, liquid was removed and plates were kept at 4°C until reading. γH2AX signals were read using the LI-COR Odyssey Infrared Imager with the Odyssey v1.1 software using the 800 nm channel. Blank values correspond to non-specific γH2AX signal detected in wells without primary antibody staining. […] The resulting values for each sample were normalized to the DNA quantity by measuring the corresponding TO-PRO-3 iodide signals. The TO-PRO-3 iodine signals were detected by using the 700 nm channel. The percentage of γH2AX signal was determined for each concentration of ICRF193 and QAP 1 with or without doxorubicin treatment by setting the value for the treatment with vehicle and 1 μM doxorubicin to 100%. […]

topoisomerase II alpha = topoisomerase II alpha (Homo sapiens, UniProt P11388); assay: DNA-dependent ATPase assay (malachite green); assay type: biochemical; set-up: screened in an ATPase assay using purified full length tagged human topoisomerase II alpha; made in house; host or cells: Sf21 insect cells, baculovirus (pFastBac1)
Chain of topoisomerase II alpha (P11388 whole entry): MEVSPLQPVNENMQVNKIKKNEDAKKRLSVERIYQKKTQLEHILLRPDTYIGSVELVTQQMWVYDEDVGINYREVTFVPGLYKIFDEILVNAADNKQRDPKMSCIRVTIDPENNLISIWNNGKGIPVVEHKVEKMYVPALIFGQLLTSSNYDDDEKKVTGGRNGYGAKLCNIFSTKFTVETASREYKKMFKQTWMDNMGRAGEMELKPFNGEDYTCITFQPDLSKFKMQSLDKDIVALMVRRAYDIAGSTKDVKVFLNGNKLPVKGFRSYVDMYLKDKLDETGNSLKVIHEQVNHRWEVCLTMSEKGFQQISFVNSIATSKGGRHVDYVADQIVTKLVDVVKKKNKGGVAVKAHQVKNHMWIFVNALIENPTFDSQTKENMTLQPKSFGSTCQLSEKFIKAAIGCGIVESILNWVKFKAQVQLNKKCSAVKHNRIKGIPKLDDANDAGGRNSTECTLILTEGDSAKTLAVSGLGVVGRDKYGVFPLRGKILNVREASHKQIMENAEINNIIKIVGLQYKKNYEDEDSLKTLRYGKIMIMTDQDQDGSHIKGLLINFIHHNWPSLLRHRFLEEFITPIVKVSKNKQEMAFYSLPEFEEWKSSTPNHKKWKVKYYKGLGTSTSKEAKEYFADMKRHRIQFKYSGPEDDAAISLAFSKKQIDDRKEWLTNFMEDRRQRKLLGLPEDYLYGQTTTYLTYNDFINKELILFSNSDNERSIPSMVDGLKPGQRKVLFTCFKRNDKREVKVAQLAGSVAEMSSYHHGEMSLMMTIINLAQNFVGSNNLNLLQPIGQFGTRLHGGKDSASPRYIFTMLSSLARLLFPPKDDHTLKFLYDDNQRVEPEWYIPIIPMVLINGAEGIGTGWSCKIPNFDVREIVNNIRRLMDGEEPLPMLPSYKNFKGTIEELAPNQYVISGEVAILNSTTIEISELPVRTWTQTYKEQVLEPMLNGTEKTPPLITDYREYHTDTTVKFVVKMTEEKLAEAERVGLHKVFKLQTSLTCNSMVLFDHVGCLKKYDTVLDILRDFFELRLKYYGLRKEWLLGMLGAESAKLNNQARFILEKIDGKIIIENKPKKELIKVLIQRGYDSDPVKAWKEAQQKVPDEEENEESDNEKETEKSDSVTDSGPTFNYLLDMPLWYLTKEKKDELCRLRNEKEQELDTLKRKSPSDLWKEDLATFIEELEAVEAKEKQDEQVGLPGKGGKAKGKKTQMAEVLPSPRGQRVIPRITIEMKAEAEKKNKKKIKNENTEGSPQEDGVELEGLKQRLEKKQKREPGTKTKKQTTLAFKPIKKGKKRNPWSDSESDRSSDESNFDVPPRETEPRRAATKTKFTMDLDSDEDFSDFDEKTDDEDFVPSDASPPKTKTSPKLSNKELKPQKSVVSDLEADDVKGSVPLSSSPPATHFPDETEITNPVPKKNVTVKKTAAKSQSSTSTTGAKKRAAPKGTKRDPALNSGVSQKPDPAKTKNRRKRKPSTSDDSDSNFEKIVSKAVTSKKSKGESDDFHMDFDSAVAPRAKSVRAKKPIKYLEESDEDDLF
Procedure: DNA-dependent ATP hydrolysis of human topoisomerase II α was monitored by measuring the production of inorganic phosphate using acidic molybdate and malachite green. Specific ATPase activity of every batch was tested in a time-course to determine optimal incubation times and enzyme concentrations within the linear range of the assay. Reactions thus contained 10 – 40 nM topoisomerase II (dimer concentration) in reaction buffer (10 mM Tris HCl pH 7.5, 175 mM KCl, 0.1 mM EDTA, 5 mM MgCl2, 2 mM DTT, 2.5% glycerol and 1.7 nM supercoiled pUC18). The specific activity of the human topoisomerase II α enzyme measured in the ATPase assay was 0.24 μmol PO4·min^-1·mg^-1. […] Compounds at the indicated concentrations were added as serial dilutions prepared in DMSO and preincubated for 10 minutes at 37°C on an orbital shaker. Reactions were started by the addition of 400 μM ATP (Sigma, catalog number A2383) and allowed to proceed for 30 minutes. Reactions were terminated by the addition of 200 μl malachite green reagent and the OD was read immediately at 630 nm on a SpectraMax Plus microtiter plate reader using SoftMax Pro software (Molecular Devices). For kinetic analysis, reactions were carried out in duplicate as described above either in the presence of vehicle (DMSO) or QAP 1. Following a preincubation for 5 minutes, ATP was added at the indicated concentrations to start the reactions, which were allowed to proceed for 17 minutes before stopping and reading as above. From these values the OD values obtained at each respective ATP concentration without enzyme were subtracted for background correction. […] A compromise was found by carrying out the competition experiments with a single concentration of the inhibitor that gave a good inhibition of enzyme activity while keeping a measurable signal. The equations used to fit these experiments are: […]
Each competition experiment was fitted (Grafit version 5.04 – Erithacus Software) with these 3 equations and the models that gave unrealistic inhibition constants (above 10 mM) and/or large standard errors (similar to the value of the fitted parameter) were rejected. Then, the F-test was carried out to identify the best fitting model. An alternative method was used to determine the mode of action of the inhibitor. Dose-response experiments were carried out at different ATP concentrations and the corresponding IC50s determined. According to the Cheng-Prusoff equation for linear competitive inhibition: […]
The IC50 of a competitive inhibitive inhibitor should increase in a linear fashion with the concentration of ATP. The measured IC50s were then plotted in function of the ATP concentrations and linear regression analyses were carried out. […] Mean Km and Vmax values were calculated from two independent experiments.

IC50 (topoisomerase II alpha; full length tagged human topoisomerase II alpha, 400 μM ATP): 128 ± 21 nM | mode of inhibition (kinetic analysis, F-test) (topoisomerase II alpha; non-linear regression, competitive vs uncompetitive vs mixed models): ATP-competitive inhibitor
SMILES: CCc1nc2nc(Nc3ccc4nc(OCCN5CCOCC5)ccc4c3)nc(NC(C)(C)C)c2[nH]1 [QAP 1]
IC50 (HeLa T-Rex cells): ~1100 nM
